Results from the supplement of paper PMC6723410.

Assays:
GUMC-403 [1] = test: viability at highest tested concentration (max response) relative to DMSO (% of DMSO control); higher = less cytotoxic; settings: library / dose series: MIPE library, 11-point 1:3 dilution; top concentration 46.1 µM; 48 h
Method in brief: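 This value is viability at the highest tested concentration relative to vehicle control. GUMC-403 papilloma cells from a patient, grown by conditional reprogramming, were plated at 700/well in 1536-well plates and given 23 nL of compound by pin tool for 48 h. CellTiter-Glo luminescence on a ViewLux was normalised with vehicle wells at 100% and empty wells at 0%.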

GUMC-403 [2] = test: AC50 for reduction of cell viability; higher = less potent; settings: 48 h
[3] = library / dose series: MIPE library, 11-point 1:3 dilution
[4] = library / dose series: NPC library, 8-point 1:5 dilution

Row | SMILES | viability (GUMC-403 [1]) | AC50 for reduction of cell viability (GUMC-403 [2]; [3]) | AC50 for reduction of cell viability (GUMC-403 [2]; [4])
1 | CC(C)(C)c1cnc(CSc2cnc(NC(=O)C3CCNCC3)s2)o1 | 24.3 | 0.469 µM | 
2 | CN(C)c1ccc2nc3ccc(N(C)C)cc3[s+]c2c1 | 6.57 | 7.43 µM | 
3 | CCOC(=O)[C@H](CCc1ccccc1)N[C@@H](C)C(=O)N1[C@H](C(=O)O)C[C@@H]2CCC[C@@H]21 | 4.65 | 26.4 µM | 
4 | C[C@@]12OC(=O)[C@@]1(NC(=O)[C@@H]2CCCl)[C@@H](O)[C@H]\3CCC\C=C3 | 6.32 | 3.72 µM | 
5 | CC(C)C[C@@H](C=O)NC(=O)[C@H](CC(C)C)NC(=O)[C@H](CC(C)C)NC(=O)OCc1ccccc1 | 9.05 | 10.5 µM | 
6 | CC1(C)CC(=O)c2c(C(F)(F)F)nn(-c3ccc(C(N)=O)c(NC4CCC(O)CC4)c3)c2C1 (stereo not drawn) | 67.7 | 0.296 µM | 
7 | CN(C)c1ccc2cc(C(=O)N[C@@H](CCCNC(=N)CCl)C(=O)NCc3ccccc3)ccc2c1 | 46.3 | 20.9 µM | 
8 | Nc1nc(NCCNc2ncc(-n3ccnc3)c(-c3ccc(Cl)cc3Cl)n2)ccc1[N+](=O)[O-] | 61.4 | 2.35 µM | 
9 | N=C(NCCCCCCNC(=N)NC(=N)Nc1ccc(Cl)cc1)NC(=N)Nc1ccc(Cl)cc1 | 5.73 | 26.4 µM | 
10 | COC1=CC(c2cc3ccccc3[nH]2)=N/C1=C/c1[nH]c(C)cc1C | 26.6 | 10.5 µM | 
11 | CCN(CC)CCNC(=O)c1ccc2nc(-c3ccccc3)c(-c3ccc(CN4CCC(n5c(=O)[nH]c6ccccc65)CC4)cc3)nc2c1 | 3.89 | 10.5 µM | 
12 | CNC(=O)c1ccc(N2C(=S)N(c3cnc(C#N)c(C(F)(F)F)c3)C(=O)C23CCC3)cc1F | 16.6 | 13.2 µM | 
13 | CCC[C@H](NC(=O)/C(C#N)=C/c1cccc(Br)n1)c1ccccc1 | 19.1 | 16.6 µM | 
14 | [Cl-].C/[N+](C)=C1\C=C\C(C=C1)=C(/c2ccc(cc2)N(C)C)c3ccc(cc3)N(C)C |  |  | 13.3 µM
15 | NC1(C(=O)N[C@@H](CCO)c2ccc(Cl)cc2)CCN(c2ncnc3[nH]ccc23)CC1 | 33.6 | 16.6 µM | 
16 | CCCCCNC(=N)N/N=C/c1c[nH]c2ccc(OC)cc12 |  |  | 18.8 µM
17 | Cc1nc(NC(=O)N2CCC[C@H]2C(N)=O)sc1-c1csc(C(C)(C)C)n1 | 30.8 | 10.5 µM | 
18 | C[C@@H]\1COC(=N1)\NC2=CC3=C(C=C2)N=CN=C3NC4=CC(=C(OCC5=NC=CS5)C=C4)Cl | 54.5 | 0.59 µM | 
19 | CC[C@H](NC1=C2N=C[NH]C2=NC=N1)C/3=N/C4=C(C(=CC=C4)F)C(=O)N3C5=CC=CC=C5 | 75.5 | 3.72 µM | 
20 | O=C(CCCN1CC=C(n2c(=O)[nH]c3ccccc32)CC1)c1ccc(F)cc1 |  |  | 18.8 µM
21 | O=C(OC)[C@]12CC[C@@]3(C)[C@]4(C)CC[C@H]5[C@@](C)(C)C(=O)C(=C[C@]5(C)C4=CC(=O)[C@@H]3[C@@H]2C[C@](C)(C)CC1)C#N | 4.67 | 2.96 µM | 
22 | CO[C@H]1/C=C\C=C(\C)C(=O)NC2=CC(=O)C(NCCN(C)C)=C(C[C@@H](C)C[C@H](OC)[C@H](O)[C@@H](C)/C=C(/C)[C@@H]1OC(N)=O)C2=O | 5.25 | 1.18 µM | 
23 | COc1c(C)cnc(Cn2cnc3c(Cl)nc(N)nc32)c1C | 61.4 | 2.96 µM | 
